The values below come from ChEMBL document CHEMBL3351376, “Design, synthesis, and structure-activity relationship of novel opioid κ receptor selective agonists: α-iminoamide derivatives with an azabicyclo[2.2.2]octene skeleton” (Bioorg Med Chem Lett, 2014).

As a reminder, the Ki is a dissociation constant, usually derived from enzyme kinetics or from competition with a known ligand. A lower Ki goes with tighter binding. The Emax is the greatest response seen or fitted, relative to the assay's reference. By EC50 is commonly meant the concentration that produces a half-maximal response.

Molecules are shown by their SMILES.

The nature of experiment [1]: Selectivity ratio of Ki for mu opioid receptor in mouse brain membranes without cerebellum to Ki for kappa opioid receptor in guinea pig cerebellum. It counts as cell membranes.
In experiment [2] the target is Mu-type opioid receptor (Mus musculus, UniProt P42866). As to the kind of experiment: Displacement of [3H]DAMGO from mu opioid receptor in mouse brain membranes without cerebellum. It is filed as cell membranes, Membrane. On the technique in general: In a radioligand displacement assay an active substance lowers the binding of a labelled ligand.
Mu-type opioid receptor (Mus musculus, UniProt P42866), sequence (P42866 whole entry): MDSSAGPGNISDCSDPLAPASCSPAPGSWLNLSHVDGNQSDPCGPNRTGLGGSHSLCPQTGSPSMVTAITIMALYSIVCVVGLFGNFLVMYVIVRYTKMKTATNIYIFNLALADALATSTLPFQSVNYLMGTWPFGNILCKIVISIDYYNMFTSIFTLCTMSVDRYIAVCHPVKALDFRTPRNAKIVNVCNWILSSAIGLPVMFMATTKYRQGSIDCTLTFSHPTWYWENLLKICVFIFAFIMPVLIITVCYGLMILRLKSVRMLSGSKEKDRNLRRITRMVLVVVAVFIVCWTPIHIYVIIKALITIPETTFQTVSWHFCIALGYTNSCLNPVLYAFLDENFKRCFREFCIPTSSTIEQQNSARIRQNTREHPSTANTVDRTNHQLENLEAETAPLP
The target in experiment [3] is Delta-type opioid receptor (Mus musculus, UniProt P32300). Kind of experiment: Displacement of [3H]DPDPE from delta opioid receptor in mouse brain membranes without cerebellum. It counts as cell membranes, Membrane.
Delta-type opioid receptor (Mus musculus, UniProt P32300), sequence (P32300 whole entry): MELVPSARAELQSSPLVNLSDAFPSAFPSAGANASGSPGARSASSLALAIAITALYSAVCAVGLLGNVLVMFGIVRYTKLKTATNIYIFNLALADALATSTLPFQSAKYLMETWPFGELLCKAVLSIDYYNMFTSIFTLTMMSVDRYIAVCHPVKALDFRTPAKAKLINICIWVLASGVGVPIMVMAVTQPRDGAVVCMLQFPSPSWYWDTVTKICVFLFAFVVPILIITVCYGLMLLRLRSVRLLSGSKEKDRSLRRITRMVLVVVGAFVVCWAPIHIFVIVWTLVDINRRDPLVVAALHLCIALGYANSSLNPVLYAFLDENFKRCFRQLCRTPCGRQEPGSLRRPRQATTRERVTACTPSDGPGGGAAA
Experiment [4] concerns the target Kappa-type opioid receptor (Cavia porcellus, UniProt P41144). As to the kind of experiment: Displacement of [3H]U-69593 from kappa opioid receptor in guinea pig cerebellum.
Experiment [5] deals with T1, Mu-type opioid receptor (Homo sapiens, UniProt P35372). As to the kind of experiment: Agonist activity at human mu opioid receptor expressed in CHO cells by [35S]GTPgammaS binding assay relative to DAMGO. It counts as functional, cell-based. A general note: Binding of GTPγS marks nucleotide exchange on a G protein.
T1 sequence (P35372 whole entry): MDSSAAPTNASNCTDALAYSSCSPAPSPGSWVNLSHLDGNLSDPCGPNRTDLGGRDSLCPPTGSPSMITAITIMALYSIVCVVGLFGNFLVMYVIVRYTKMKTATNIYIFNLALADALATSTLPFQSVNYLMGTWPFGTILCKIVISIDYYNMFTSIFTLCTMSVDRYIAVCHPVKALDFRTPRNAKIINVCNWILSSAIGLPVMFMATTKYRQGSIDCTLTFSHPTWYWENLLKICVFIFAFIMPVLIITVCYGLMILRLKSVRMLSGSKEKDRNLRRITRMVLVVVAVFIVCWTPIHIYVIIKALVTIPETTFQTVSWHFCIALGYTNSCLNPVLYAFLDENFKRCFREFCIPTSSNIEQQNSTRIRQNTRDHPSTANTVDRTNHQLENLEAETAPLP
Experiment [6] has as its target T2, Delta-type opioid receptor (Homo sapiens, UniProt P41143). As to the kind of experiment: Agonist activity at human delta opioid receptor expressed in CHO cells by [35S]GTPgammaS binding assay relative to SNC80. It is filed as functional, cell-based.
The target of experiment [7] is T1, Mu-type opioid receptor. Kind of experiment: Agonist activity at human mu opioid receptor expressed in CHO cells by [35S]GTPgammaS binding assay. It is filed as functional, cell-based.
Experiment [8] addresses T3, Kappa-type opioid receptor (Homo sapiens, UniProt P41145). As to the kind of experiment: Agonist activity at human kappa opioid receptor expressed in CHO cells by [35S]GTPgammaS binding assay. It counts as functional, cell-based.
For experiment [9], the target named is T2, Delta-type opioid receptor. As to the kind of experiment: Agonist activity at human delta opioid receptor expressed in CHO cells by [35S]GTPgammaS binding assay. It counts as functional, cell-based.
In experiment [10] the target is T3, Kappa-type opioid receptor. As to the kind of experiment: Agonist activity at human kappa opioid receptor expressed in CHO cells by [35S]GTPgammaS binding assay relative to U-69593. It is filed as functional, cell-based.

T3 sequence (P41145 whole entry): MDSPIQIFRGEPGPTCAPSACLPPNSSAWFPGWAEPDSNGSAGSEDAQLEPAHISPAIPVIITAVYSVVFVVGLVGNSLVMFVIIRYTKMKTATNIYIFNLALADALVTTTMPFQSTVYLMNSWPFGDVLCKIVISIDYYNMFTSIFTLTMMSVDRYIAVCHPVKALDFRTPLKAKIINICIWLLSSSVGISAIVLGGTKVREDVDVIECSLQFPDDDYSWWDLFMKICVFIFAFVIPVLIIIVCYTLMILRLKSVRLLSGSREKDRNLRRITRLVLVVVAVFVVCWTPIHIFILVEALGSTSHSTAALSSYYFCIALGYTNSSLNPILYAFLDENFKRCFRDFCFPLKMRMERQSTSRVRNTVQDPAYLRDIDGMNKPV
T2 sequence (P41143 whole entry): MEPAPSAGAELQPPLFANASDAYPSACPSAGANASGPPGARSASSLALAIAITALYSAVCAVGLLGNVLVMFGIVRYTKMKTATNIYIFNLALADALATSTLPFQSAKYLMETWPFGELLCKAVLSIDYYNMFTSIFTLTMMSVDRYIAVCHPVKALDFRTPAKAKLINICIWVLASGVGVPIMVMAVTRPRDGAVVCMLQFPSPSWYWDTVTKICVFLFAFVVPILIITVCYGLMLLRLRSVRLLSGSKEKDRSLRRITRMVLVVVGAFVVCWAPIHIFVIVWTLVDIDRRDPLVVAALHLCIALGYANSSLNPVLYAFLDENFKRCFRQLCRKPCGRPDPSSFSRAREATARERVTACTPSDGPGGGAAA
Kappa-type opioid receptor (Cavia porcellus, UniProt P41144), sequence (P41144 whole entry): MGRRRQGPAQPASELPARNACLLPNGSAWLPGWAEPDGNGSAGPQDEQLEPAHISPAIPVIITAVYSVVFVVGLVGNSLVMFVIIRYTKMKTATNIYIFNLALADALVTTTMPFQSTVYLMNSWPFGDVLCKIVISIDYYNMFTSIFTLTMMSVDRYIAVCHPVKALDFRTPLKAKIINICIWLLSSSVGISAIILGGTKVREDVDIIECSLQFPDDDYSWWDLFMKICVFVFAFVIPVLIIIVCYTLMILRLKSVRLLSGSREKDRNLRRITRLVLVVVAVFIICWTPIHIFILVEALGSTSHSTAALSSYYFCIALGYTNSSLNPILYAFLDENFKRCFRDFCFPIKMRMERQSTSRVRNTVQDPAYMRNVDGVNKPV

With `O=C(NCc1ccccc1)[C@H]1N[C@@]23CC[C@]1(O)C1Oc4c(O)ccc5c4C12CCN(CC1CC1)C3C5` (some centres undefined), the Ratio Ki in experiment [1] worked out at 1.04. The inhibition constant Ki stood at 0.24 nM on Mu-type opioid receptor [2], 0.81 nM in experiment [3] and 0.23 nM in experiment [4].

Turning to `CN(C(=O)/C=C/c1ccoc1)[C@@H]1CC[C@@]2(O)[C@H]3Cc4ccc(O)c5c4[C@@]2(CCN3CC2CC2)[C@H]1O5` [NALFURAFINE], the Emax is 70.4% at Mu-type opioid receptor [5] and 55.2% in [6]. Moreover, the concentration for a half-maximal effect (EC50) on Mu-type opioid receptor [7] was 0.72 nM.

Turning to `Oc1ccc2c3c1OC1C34CCN(CC3CC3)C(C2)[C@]42CC[C@@]1(O)C=N2` (some centres undefined), the Ratio Ki in experiment [1] was 0.2. The Ki stood at 0.28 nM on Mu-type opioid receptor [2], 6.12 nM in [3] and 1.42 nM in experiment [4].

For the compound `O=C(Nc1ccccc1)C1=N[C@@]23CC[C@]1(O)C1Oc4c(O)ccc5c4C12CCN(CC1CC1)C3C5` (some centres undefined), the Ratio Ki in experiment [1] was determined as 0.95. The Ki on Mu-type opioid receptor [2] turned out to be 0.36 nM; in experiment [3], 0.32 nM; in [4], 0.38 nM.

Take `O=C(C[C@H]1N[C@@]23CC[C@]1(O)C1Oc4c(O)ccc5c4C12CCN(CC1CC1)C3C5)NCc1ccccc1` (some centres undefined): the Ratio Ki in experiment [1] was determined as 1.42. The Ki at Mu-type opioid receptor [2] amounted to 0.052 nM; in [3], 0.15 nM; in experiment [4], 0.037 nM.

In the case of `O=C1C[C@H]2N(CN1Cc1ccccc1)[C@@]13CC[C@]2(O)C2Oc4c(O)ccc5c4C21CCN(CC1CC1)C3C5` (some centres undefined), in [1], the Ratio Ki turned out to be 0.28. Besides, the Ki on Mu-type opioid receptor [2] amounted to 0.43 nM; in experiment [3], 4.93 nM; in experiment [4] it was 1.54 nM.

Regarding `O=C(NCc1ccccc1)C1=N[C@@]23CC[C@]1(O)C1Oc4c(O)ccc5c4C12CCN(CC1CC1)C3C5` (some centres undefined), the Ratio Ki in [1] came out at 3.25. Further, the Ki is 0.14 nM on Mu-type opioid receptor [2], 0.61 nM in experiment [3] and 0.043 nM in experiment [4]. Moreover, the results for the Emax (on Mu-type opioid receptor [5]; in experiment [6]; in experiment [10]) were 101%, 93.2% and 91.2%, respectively. The 50% effective concentration (EC50) in experiment [8] came to 0.033 nM; in [9], 1.7 nM; at Mu-type opioid receptor [7], 0.4 nM.

In the case of `O=C(NCc1ccccc1)[C@@H]1N[C@@]23CC[C@]1(O)C1Oc4c(O)ccc5c4C12CCN(CC1CC1)C3C5` (some centres undefined), the Ratio Ki in [1] came to 0.83. The Ki came to 0.15 nM on Mu-type opioid receptor [2], 0.45 nM in experiment [3] and 0.18 nM in [4].

Regarding `O=C(NCCc1ccccc1)C1=N[C@@]23CC[C@]1(O)C1Oc4c(O)ccc5c4C12CCN(CC1CC1)C3C5` (some centres undefined), the Ratio Ki in [1] amounted to 3.5. For the same compound, the Ki stood at 0.4 nM at Mu-type opioid receptor [2], 0.86 nM in experiment [3] and 0.12 nM in [4]. The results for the Emax (at Mu-type opioid receptor [5]; in experiment [10]) were 44.9% and 76.3%, respectively. In addition, the 50% effective concentration (EC50) was 0.18 nM in [8], over 1000 nM in experiment [9] and 1.09 nM on Mu-type opioid receptor [7].

Take `O=C1C[C@@H]2N(CN1Cc1ccccc1)[C@@]13CC[C@]2(O)C2Oc4c(O)ccc5c4C21CCN(CC1CC1)C3C5` (some centres undefined): the Ratio Ki in [1] was determined as 0.09. Besides, the inhibitory constant (Ki) at Mu-type opioid receptor [2] is 0.68 nM; in experiment [3] it was 3.83 nM; in experiment [4] it was 7.74 nM.

Regarding `O=C(C[C@@H]1N[C@@]23CC[C@]1(O)C1Oc4c(O)ccc5c4C12CCN(CC1CC1)C3C5)NCc1ccccc1` (some centres undefined), in experiment [1], the Ratio Ki was 1.16. Besides, the Ki at Mu-type opioid receptor [2] was 0.13 nM; in experiment [3], 1.12 nM; in experiment [4] it was 0.11 nM.
